This note sets out measurements from patent US8937095B2, “Anticancer compounds” (Boehringer Ingelheim International GmbH, priority 2012, dated 2015).

The structures appear in SMILES notation.

Test [1] deals with Calu6 cells. As to the kind of experiment: Proliferation assay (CyQuant Direct), Calu6 cells. It counts as cell-based. The note with it: Homo sapiens, Calu-6; 72 hour incubation; read-out: GI50 antiproliferative effect on Calu6 cells. The procedure: (§1) Experimental Procedure of Proliferation Assay:
(§2) A375 and Calu6 cells are grown in RPMI1640, 10% FBS, in a humidified atmosphere of 5% CO2 at 37° C. Cells are seeded into flat bottom 96 well microtiter plates and incubated in a humidified atmosphere of 5% CO2 at 37° C. for 24 hours. Compounds are added, at the same time, a “time zero” untreated cell plate is stained and measured after 1 h. Compounds are serially diluted 5-fold from the highest test concentration (10 μM) and assayed over 8 concentrations in duplicates. The concentration of the solvent DMSO in the final culture is 0.1%. After a 72 hour incubation period, cells are stained with fluorescent nuclear dye to allow visualization of nuclei (CyQuant Direct Cell Proliferation Assay, Invitrogen Cat. No. C35012). Total fluorescence intensity of each well is measured using an Envision platform with excitation at 480 nm, emission detection at 535 nm. The assay signal correlates to the number of nuclei and thus, by definition, to the number of cells in the culture well (“cell count”).
(§3) The cell proliferation assay output for control cells after 72 hours of incubation, corresponding to 100% cell proliferation, is taken as the reference cell count for all subsequent calculations. Relative cell proliferation in compound-treated cultures (signal percent of control, “POC”) is calculated according to the following formula: POC(t=72 h)=100*fluorescence(compound wells)/fluorescence(control wells)
(§4) In addition, for each compound-treated culture, the cell count after incubation for 72 hours (POC(t=72h)) is related to the cell count at the start of treatment (POC(t=0 h)): POC(t=0 h)=100*fluorescence at t=0(control wells)/fluorescence at t=72 h(control wells)
(§5) The concentration-response curves were calculated using the dose-response package (drc versio 2.0-1 http://cran.rproject.org/web/packages/drc/index.html) from R (version 2.10.1 http://www.r-project.org/). […]
(§6) Relative cell growth inhibition (CGI %) in compound-treated cultures is calculated according to the following formula: […]

Test [2] concerns A375 cells. As to the kind of experiment: Proliferation assay (CyQuant Direct), A375 cells. It counts as cell-based. The note with it: Homo sapiens, A-375; 72 hour incubation; read-out: GI50 antiproliferative effect on A375 cells. The method, then: as §1, §2, §3, §4, §5, §6

With `CCNC(=O)C#Cc1ccc2c(c1)NC(=O)/C2=C(\Nc1ccc(CN(C)C)cc1)c1ccccc1` [Compound 6, 3-[3-[[4-(dimethylaminomethyl)anilino]-phenylmethylidene]-2-oxo-1H-indol-6-yl]-N-ethylprop-2-ynamide], the values for the GI50 in test [1] and in test [2] were 7.66 nM and 2.7 nM, respectively.
For the molecule `CCNC(=O)C#Cc1ccc2c(c1)NC(=O)/C2=C(\Nc1ccc(CNC)cc1)c1ccccc1` [Compound 26, 3-[3-[[4-(methylaminomethyl)anilino]-phenylmethylidene]-2-oxo-1H-indol-6-yl]-N-ethylprop-2-ynamide], the GI50 in test [1] came to 7.82 nM; in test [2], 3.37 nM.
As for `CCNC(=O)C#Cc1ccc2c(c1)NC(=O)/C2=C(\Nc1ccc(C[N+](C)(C)[O-])cc1)c1ccccc1` [Compound 27, 3-[3-[[4-(dimethyloxidoaminomethyl)anilino]-phenylmethylidene]-2-oxo-1H-indol-6-yl]-N-ethylprop-2-ynamide], the results for the GI50 in test [1] and in test [2] were 11.3 nM and 17.3 nM, respectively.

What is called GI50 is the concentration that inhibits growth by half.
